The source made the active and inactive calls. The rule behind the calls is not given here.
Legend:
[1] = species: Homo sapiens; experiment: Inhibition of GSNOR (unknown origin) at 1 uM in presence of NADH incubated for 10 mins by microplate reader analysis relative to control
[2] = Inhibition of GSNOR (unknown origin) in presence of NADH incubated for 10 mins by microplate reader analysis; set-up: species or system Homo sapiens
[3] = species: Homo sapiens; experiment: Inhibition of GSNOR (unknown origin) at 10 uM relative to control
[4] = system: Rattus norvegicus; experiment: Neuroprotective activity against tMCAO- induced brain injury in Sprague-Dawley rat model assessed as reduction in infarct volume at 5 mg/kg, iv measured up to 24 hrs by TTC staining based analysis (reference value: 36.35 +/- 4.05%); format: functional; set-up: scale not given: the % may be the effect or the level left
[5] = system: Rattus norvegicus; experiment: Neuroprotective activity against tMCAO- induced brain injury in Sprague-Dawley rat model assessed as reduction in infarct volume at 10 mg/kg, iv measured up to 24 hrs by TTC staining based analysis (reference value: 36.35 +/- 4.05%); format: functional; set-up: scale not given: the % may be the effect or the level left
[6] = system: SH-SY5Y; experiment: Neuroprotective activity against OGD/R-induced human […] cell injury model assessed as increase in cell viability at 10 uM measured for 24 hrs by CCK-8 assay; format: functional, cell-based
[7] = Half life in male C57BL/6 mouse at 10 mg/kg, po by LC-MS/MS analysis; format: ADME, organism-based; details: in vivo
[8] = system: Rattus norvegicus; experiment: Neuroprotective activity against tMCAO- induced brain injury in Sprague-Dawley rat model assessed as reduction in neurological score at 10 mg/kg, iv measured up to 24 hrs Longa scale analysis; format: functional, organism-based
[9] = Cmax in Sprague-Dawley rat at 10 mg/kg, iv by LC-MS/MS analysis; format: ADME, organism-based; details: in vivo
[10] = MRT (0 to t) in male C57BL/6 mouse at 2 mg/kg, iv by LC-MS/MS analysis; format: ADME, organism-based; details: in vivo
[11] = system: Rattus norvegicus; experiment: Neuroprotective activity against tMCAO- induced brain injury in Sprague-Dawley rat model assessed as upregulation of clstn1 level in brain at 5 mg/kg, iv measured after 24 hrs by LC-MS/MS analysis; format: functional, organism-based
[12] = Permeability of compound across apical to basal side in human Caco-2 cells at 10 uM incubated for 120 mins by LC-MS/MS analysis; format: ADME, cell-based; details: caco-2, 2 h
[13] = system: SH-SY5Y; experiment: Neuroprotective activity against OGD/R-induced human […] cell injury model assessed as cell survival measured for 24 hrs by CCK-8 assay; format: functional, cell-based; details: dose 1-10 µM
[14] = Oral bioavailability in male C57BL/6 mouse at 10 mg/kg by LC-MS/MS analysis; format: ADME, organism-based; details: in vivo
[15] = system: SH-SY5Y; experiment: Cytotoxicity against human SH-SY5Y cells up to 40 uM incubated for 24 hrs by CCK-8 assay; format: functional, cell-based
[16] = Tmax in Sprague-Dawley rat at 10 mg/kg, iv by LC-MS/MS analysis; format: ADME, organism-based; details: in vivo
[17] = Metabolic stability in rat liver microsomes assessed as half life preincubated for 5 mins followed by NADPH addition and measured up to 60 mins by LC-MS/MS analysis; format: ADME, Microsome; details: time < 65 min
[18] = Metabolic stability in rat liver microsomes assessed as intrinsic clearance preincubated for 5 mins followed by NADPH addition and measured up to 60 mins by LC-MS/MS analysis; format: ADME, Microsome; details: time < 65 min, read-out: CLH
[19] = Half life in male C57BL/6 mouse at 2 mg/kg, iv by LC-MS/MS analysis; format: ADME, organism-based; details: in vivo
[20] = Stability in rat plasma assessed as half life at 1 uM incubated up to 120 mins by LC-MS/MS analysis; format: ADME, cell-free
[21] = system: Rattus norvegicus; experiment: Neuroprotective activity against tMCAO- induced brain injury in Sprague-Dawley rat model assessed as […] at 5 mg/kg, iv measured up to 24 hrs; format: functional, organism-based
[22] = system: Rattus norvegicus; experiment: Neuroprotective activity against tMCAO- induced brain injury in Sprague-Dawley rat model assessed as reduction in neurological score at 5 mg/kg, iv measured up to 24 hrs Longa scale analysis; format: functional, organism-based
[23] = AUC (0 to t) in Sprague-Dawley rat at 10 mg/kg, iv by LC-MS/MS analysis; format: ADME, organism-based; details: in vivo
[24] = MRT (0 to t) in male C57BL/6 mouse at 10 mg/kg, po by LC-MS/MS analysis; format: ADME, organism-based; details: in vivo
[25] = Clearance in Sprague-Dawley rat at 10 mg/kg, iv by LC-MS/MS analysis; format: ADME, organism-based; details: in vivo
[26] = MRT (0 to t) in Sprague-Dawley rat at 10 mg/kg, iv by LC-MS/MS analysis; format: ADME, organism-based; details: in vivo
[27] = Half life in Sprague-Dawley rat at 10 mg/kg, iv by LC-MS/MS analysis; format: ADME, organism-based; details: in vivo
[28] = molecular target: CYP2D6 (Homo sapiens, UniProt P10635); experiment: Inhibition of human CYP2D6 in human liver microsome at 10 uM relative to control; format: ADME; details: human liver microsomes
[29] = molecular target: CYP2C19 (Homo sapiens, UniProt P33261); experiment: Inhibition of human CYP2C19 in human liver microsome at 10 uM relative to control; format: ADME; details: human liver microsomes
[30] = molecular target: CYP2C9 (Homo sapiens, UniProt P11712); experiment: Inhibition of human CYP2C9 in human liver microsome at 10 uM relative to control; format: ADME; details: human liver microsomes
[31] = molecular target: CYP3A4 (Homo sapiens, UniProt P08684); experiment: Inhibition of human CYP3A4 in human liver microsome at 10 uM relative to control; format: ADME; details: human liver microsomes
[32] = molecular target: T1, CYP1A2 (Homo sapiens, UniProt P05177); experiment: Inhibition of human CYP1A2 in human liver microsome at 10 uM relative to control; format: ADME; details: human liver microsomes
T1 sequence (P05177 whole entry): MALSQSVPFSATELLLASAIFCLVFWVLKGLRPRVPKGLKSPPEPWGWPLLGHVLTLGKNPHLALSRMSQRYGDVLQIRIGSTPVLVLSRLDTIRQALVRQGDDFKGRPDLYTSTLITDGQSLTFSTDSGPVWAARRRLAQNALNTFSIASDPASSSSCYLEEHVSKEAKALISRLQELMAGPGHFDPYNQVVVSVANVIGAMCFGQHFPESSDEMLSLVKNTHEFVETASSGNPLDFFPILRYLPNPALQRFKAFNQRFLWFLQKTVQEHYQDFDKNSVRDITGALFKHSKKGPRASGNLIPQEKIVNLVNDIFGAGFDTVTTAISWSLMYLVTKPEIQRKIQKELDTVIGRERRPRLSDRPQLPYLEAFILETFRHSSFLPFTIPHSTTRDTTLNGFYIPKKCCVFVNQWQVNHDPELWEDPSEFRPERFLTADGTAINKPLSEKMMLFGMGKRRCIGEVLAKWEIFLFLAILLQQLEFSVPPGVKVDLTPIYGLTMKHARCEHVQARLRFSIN

[33] = Inhibition of GSNOR (unknown origin); set-up: species or system Homo sapiens

Chain of CYP2D6 (P10635 whole entry): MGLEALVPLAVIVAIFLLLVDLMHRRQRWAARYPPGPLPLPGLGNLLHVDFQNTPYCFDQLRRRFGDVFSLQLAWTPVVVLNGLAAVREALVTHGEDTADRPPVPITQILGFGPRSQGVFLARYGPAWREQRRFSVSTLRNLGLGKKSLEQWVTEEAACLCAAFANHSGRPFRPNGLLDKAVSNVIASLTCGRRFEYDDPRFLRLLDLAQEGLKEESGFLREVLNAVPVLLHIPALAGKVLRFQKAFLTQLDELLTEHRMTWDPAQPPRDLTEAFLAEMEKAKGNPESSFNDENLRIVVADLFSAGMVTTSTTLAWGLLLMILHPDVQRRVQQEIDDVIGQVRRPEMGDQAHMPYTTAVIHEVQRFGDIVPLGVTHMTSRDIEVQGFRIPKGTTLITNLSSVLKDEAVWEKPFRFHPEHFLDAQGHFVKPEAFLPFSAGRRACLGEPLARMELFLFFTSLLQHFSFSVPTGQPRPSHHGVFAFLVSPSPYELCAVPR
Chain of CYP2C9 (P11712 whole entry): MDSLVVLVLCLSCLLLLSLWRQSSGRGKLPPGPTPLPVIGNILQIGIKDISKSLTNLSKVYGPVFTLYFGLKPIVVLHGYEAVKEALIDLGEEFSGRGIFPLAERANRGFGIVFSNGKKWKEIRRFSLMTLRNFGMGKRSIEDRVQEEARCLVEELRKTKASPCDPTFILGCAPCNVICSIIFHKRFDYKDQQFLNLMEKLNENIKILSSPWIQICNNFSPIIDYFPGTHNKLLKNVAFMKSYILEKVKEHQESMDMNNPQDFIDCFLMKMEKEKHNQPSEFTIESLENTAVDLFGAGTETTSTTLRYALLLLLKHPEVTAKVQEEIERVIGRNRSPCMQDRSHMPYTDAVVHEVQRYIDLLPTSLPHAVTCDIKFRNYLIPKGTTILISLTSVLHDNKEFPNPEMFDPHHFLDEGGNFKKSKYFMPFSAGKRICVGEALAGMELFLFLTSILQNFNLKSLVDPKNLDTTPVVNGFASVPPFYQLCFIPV
Chain of CYP2C19 (P33261 whole entry): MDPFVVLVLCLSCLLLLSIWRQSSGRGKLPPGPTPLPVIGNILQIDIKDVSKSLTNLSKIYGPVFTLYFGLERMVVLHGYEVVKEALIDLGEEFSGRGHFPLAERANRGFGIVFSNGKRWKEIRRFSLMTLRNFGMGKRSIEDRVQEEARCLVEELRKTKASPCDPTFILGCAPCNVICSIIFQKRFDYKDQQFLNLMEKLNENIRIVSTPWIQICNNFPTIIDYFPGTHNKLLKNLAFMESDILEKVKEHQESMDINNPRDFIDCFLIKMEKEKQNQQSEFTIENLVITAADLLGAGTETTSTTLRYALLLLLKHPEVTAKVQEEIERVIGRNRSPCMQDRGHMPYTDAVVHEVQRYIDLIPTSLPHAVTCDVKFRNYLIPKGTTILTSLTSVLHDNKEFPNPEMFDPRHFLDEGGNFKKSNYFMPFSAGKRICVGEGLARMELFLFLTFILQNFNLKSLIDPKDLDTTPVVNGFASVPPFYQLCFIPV
Chain of CYP3A4 (P08684 whole entry): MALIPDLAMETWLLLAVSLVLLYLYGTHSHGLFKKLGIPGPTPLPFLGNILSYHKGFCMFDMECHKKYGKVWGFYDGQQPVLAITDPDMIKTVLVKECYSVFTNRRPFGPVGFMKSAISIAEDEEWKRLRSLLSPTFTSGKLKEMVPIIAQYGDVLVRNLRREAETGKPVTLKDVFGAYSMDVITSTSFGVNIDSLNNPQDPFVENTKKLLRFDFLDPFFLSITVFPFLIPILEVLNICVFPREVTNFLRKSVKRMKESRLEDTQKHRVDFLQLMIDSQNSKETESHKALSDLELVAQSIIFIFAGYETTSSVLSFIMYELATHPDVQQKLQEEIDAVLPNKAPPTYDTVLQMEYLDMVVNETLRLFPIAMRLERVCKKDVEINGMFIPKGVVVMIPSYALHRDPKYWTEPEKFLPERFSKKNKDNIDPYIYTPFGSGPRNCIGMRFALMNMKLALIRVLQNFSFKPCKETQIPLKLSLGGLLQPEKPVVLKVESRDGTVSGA

Cc1cc(C(N)=O)ccc1-n1c(-c2ccc(-c3cccnc3)cc2)cc2ccc(C(=O)O)cc21
inhibition [1]: 22.2%

Cc1cc(C(N)=O)ccc1-n1c(-c2ccc(N3CCN(C)CC3)cc2)cc2ccc(C(=O)O)cc21
inhibition [1]: -0.36%

Cc1cc(C(N)=O)ccc1-n1c(-c2ccc(N3CCOCC3)cc2)cc2ccc(C(=O)O)cc21
inhibition [1]: -0.76%

Cc1cc(C(N)=O)ccc1-n1c(-c2ccc(NS(N)(=O)=O)cc2)cc2ccc(C(=O)O)cc21
inhibition [1]: 14.8%

Cc1cc(C(N)=O)ccc1-n1c(-c2ccc(-c3cn(C)nc3C)cc2)cc2ccc(C(=O)O)cc21
inhibition [1]: 2.44%

NC(=O)c1cccc(Cn2c(-c3ccc(-n4ccnc4)cc3)cc3ccc(C(=O)O)cc32)c1
inhibition [1]: 3.84%

Cc1cc(C(N)=O)ccc1-n1c(-c2ccc(O)cc2)cc2ccc(C(=O)O)cc21
inhibition [1]: 33.7%

NC(=O)c1ccc(-n2c(-c3ccc(-n4ccnc4)cc3)cc3ccc(C(=O)O)cc32)cc1Cl
inhibition [1]: 93.3% | IC50 [2]: 51.1 nM

NC(=O)c1ccc(Cn2c(-c3ccc(-n4ccnc4)cc3)cc3ccc(C(=O)O)cc32)cc1
inhibition [1]: 22.4% | IC50 [2]: 42.2 nM

O=C(O)c1ccc2cc(-c3ccccc3)n(Cc3ccc(F)cc3)c2c1
inhibition [3]: 32.4%

NC(=O)c1ccc(-n2c(-c3ccc(-n4ccnc4)cc3)cc3ccc(C(=O)O)cc32)cc1
inhibition [1]: 81.7% | IC50 [2]: 312 nM

NC(=O)c1ccc(-n2c(-c3ccc(-n4ccnc4)cc3)cc3ccc(C(=O)O)cc32)cn1
inhibition [1]: 60.7%

N#Cc1ccc(-n2c(-c3ccc(-n4ccnc4)cc3)cc3ccc(C(=O)O)cc32)cc1
inhibition [1]: 22.4%

NC(=O)c1ccc(-n2c(-c3ccc(-n4ccnc4)cc3)cc3ccc(C(=O)O)cc32)cc1Br
inhibition [1]: 76.6%

N#Cc1ccc(Cn2c(-c3ccc(-n4ccnc4)cc3)cc3ccc(C(=O)O)cc32)cc1F
inhibition [1]: 88.9%

N#Cc1cccc(Cn2c(-c3ccc(-n4ccnc4)cc3)cc3ccc(C(=O)O)cc32)c1
inhibition [1]: 84.4% | IC50 [2]: 102 nM

Cc1cc(-n2c(-c3ccc(-n4ccnc4)cc3)cc3ccc(C(=O)O)cc32)ccc1C(N)=O
inhibition [1]: 72.2%

Cc1cc(C(N)=O)ccc1-n1c(CCC(=O)O)ccc1-c1ccc(-n2ccnc2)cc1 [N6022]
inhibition [1]: 90.3% | Activity [4]: 25.26% | Activity [5]: 25.26% | IC50 [2]: 84.7 nM | Activity [6]: Active

N#Cc1ccc(Cn2c(-c3ccc(-n4ccnc4)cc3)cc3ccc(C(=O)O)cc32)cc1
inhibition [1]: 35.1% | IC50 [2]: 54.6 nM

NC(=O)c1ccc(-n2c(-c3ccc(-n4ccnc4)cc3)cc3ccc(C(=O)O)cc32)cc1O
inhibition [1]: 97% | IC50 [2]: 60.3 nM

O=C(O)c1ccc2cc(-c3ccc(-n4ccnc4)cc3)n(Cc3ccc(Cl)cc3)c2c1
inhibition [1]: 28.1% | IC50 [2]: 171 nM

CC(C)Oc1cc(-n2c(-c3ccc(-n4ccnc4)cc3)cc3ccc(C(=O)O)cc32)ccc1C(N)=O
inhibition [1]: 92.3% | IC50 [2]: 58.3 nM

CCOc1cc(-n2c(-c3ccc(-n4ccnc4)cc3)cc3ccc(C(=O)OC)cc32)ccc1C(N)=O
half-life [7]: 76.2 min | Activity [8]: Active | inhibition [1]: 16.4% | Cmax [9]: 11600 ng/mL | MRT last [10]: 47.4 min | Activity [11]: Active | permeability [12]: Permeable | Activity [13]: Dose-dependent-effect | Activity [4]: 24.39% | bioavailability [14]: 11.2% | Activity [15]: Active | Activity [5]: 12.74% | Tmax [16]: 4.8 min | half-life [17]: 158 min | CLint scaled [18]: 15.8 mL/min/kg | half-life [19]: 59.4 min | half-life at 1 µM [20]: 257 min | Activity [21]: Active | Activity [22]: Active | AUC(0-t) [23]: 8040 ng·h/mL | MRT last [24]: 66 min | Activity [6]: Active | clearance [25]: 20.9 mL/min/kg | MRT last [26]: 42.6 min | half-life [27]: 36 min

Cc1cc(C(N)=O)ccc1-n1c(-c2ccc(-c3ccncc3)cc2)cc2ccc(C(=O)O)cc21
inhibition [1]: 12.5%

CCOc1cc(-n2c(-c3ccc(-n4ccnc4)cc3)cc3ccc(C(=O)O)cc32)ccc1C(N)=O
inhibition at 10 µM [28]: 59.2% | inhibition [1]: 95.1% | Cmax [9]: 2930 ng/mL | bioavailability [14]: 6.64% | Activity [15]: Active | Tmax [16]: 19.8 min | inhibition at 10 µM [29]: 70.1% | IC50 [2]: 44.1 nM | AUC(0-t) [23]: 3510 ng·h/mL | inhibition at 10 µM [30]: 75% | Activity [6]: Active | clearance [25]: 48.5 mL/min/kg | inhibition at 10 µM [31]: 81.5% | MRT last [26]: 63 min | half-life [27]: 51 min | inhibition at 10 µM [32]: 16.6%

O=C(O)c1ccc2cc(-c3ccc(-n4ccnc4)cc3)n(Cc3ccc(SC(F)(F)F)cc3)c2c1
inhibition [1]: 89.7% | IC50 [2]: 71.1 nM

O=C(O)c1ccc2cc(-c3ccc(-n4ccnc4)cc3)n(Cc3ccc(F)cc3)c2c1
IC50 [33]: 649 nM

N[C@@H](CCC(=O)N[C@@H](CSN=O)C(=O)NCC(=O)O)C(=O)O [S-NITROSOGLUTATHIONE]
Activity [4]: 25.26% | Activity [6]: Active

NC(=O)c1ccc(-n2c(-c3ccc(-n4ccnc4)cc3)cc3ccc(C(=O)O)cc32)cc1C(F)(F)F
inhibition [1]: 50.9%

Cc1cc(C(N)=O)ccc1-n1c(-c2ccc(-c3cn(C)nc3C(F)(F)F)cc2)cc2ccc(C(=O)O)cc21
inhibition [1]: 0.93%

CN(C)S(=O)(=O)c1ccc(Cn2c(-c3ccc(-n4ccnc4)cc3)cc3ccc(C(=O)O)cc32)cc1
inhibition [1]: 94.3%

Cc1cc(C(N)=O)ccc1-n1c(-c2ccc(-n3ccnc3)cc2)cc2ccc(C(=O)O)cc21
inhibition [1]: 81.2% | IC50 [2]: 192 nM

O=C(O)c1ccc2cc(-c3ccc(-n4ccnc4)cc3)n(Cc3ccc(N4CCCC4=O)cc3)c2c1
inhibition [1]: 85.5%

Cc1cc(C(N)=O)ccc1-n1c(-c2ccc(-c3ccc(=O)[nH]c3)cc2)cc2ccc(C(=O)O)cc21
inhibition [1]: 5.7%

O=C(O)c1ccc2cc(-c3ccc(-n4ccnc4)cc3)n(Cc3ccc(Br)cc3)c2c1
inhibition [1]: 81.6% | IC50 [2]: 84.4 nM

Reference: ChEMBL document CHEMBL6182937, “Design, Synthesis, and Anti-ischemic Stroke Activity Evaluation of Novel GSNOR Inhibitors” (J Med Chem, 2025)
